Test results as given in the supplement of paper PMC10307832.

Tests used:
Assay in all cases: relative viability (nuclei count vs DMSO), 5 days (fraction); higher = more cells survive
[1] = compound: CCn1c(-c2nonc2N)nc2cnc(Oc3cccc(NC(=O)c4ccc(OCCN5CCOCC5)cc4)c3)cc21 + CS(=O)(=O)CCNCc1ccc(-c2ccc3ncnc(Nc4ccc(OCc5cccc(F)c5)c(Cl)c4)c3c2)o1 [Lapatinib] (partner 2 µM)
Outline: (§1)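 For relative viability, nuclei counts in treated wells were divided by those in vehicle wells. Lung cancer cell lines had been pin-tool dosed in 1536-well plates the day after seeding and cultured for 5 days, then fixed and stained in one step (final 0.05% Triton X-100, 1% formaldehyde, 1 ug/ml Hoechst) and imaged at 4×. Doses were one drug alone or a fixed anchor-drug dose plus five library-drug doses (not always all listed) in √10 steps, and values are duplicate-plate medians.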

Mirin + Linsitinib = compound: N=C1NC(=O)/C(=C/c2ccc(O)cc2)S1 [Mirin] + C[C@]1(O)C[C@@H](c2nc(-c3ccc4ccc(-c5ccccc5)nc4c3)c3c(N)nccn32)C1 [Linsitinib] (partner 1 µM)
Outline: as §1

[2] = compound: CCC1=CN=CN=C1N2CCN(CC2)CC3=NC4=C(N3)C=C(C=C4)C(F)(F)F + C[C@@H](Oc1cc(-c2cnn(C3CCNCC3)c2)cnc1N)c1c(Cl)ccc(F)c1Cl [Crizotinib] (partner 1 µM)
Outline: as §1

Mirin + Tozasertib = compound: N=C1NC(=O)/C(=C/c2ccc(O)cc2)S1 [Mirin] + Cc1cc(Nc2cc(N3CCN(C)CC3)nc(Sc3ccc(NC(=O)C4CC4)cc3)n2)n[nH]1 [Tozasertib] (partner 0.1 µM)
Outline: as §1

| Cell Line | relative viability ([1]; first compound 0.04 µM) | relative viability ([1]; first compound 0.1265 µM) | relative viability ([1]; first compound 0.4 µM) | relative viability ([1]; first compound 1.265 µM) | relative viability ([1]; first compound 4 µM) | relative viability (Mirin + Linsitinib; first compound 0.25 µM) | relative viability (Mirin + Linsitinib; first compound 0.7906 µM) | relative viability (Mirin + Linsitinib; first compound 2.5 µM) | relative viability (Mirin + Linsitinib; first compound 7.906 µM) | relative viability (Mirin + Linsitinib; first compound 25 µM) | relative viability ([2]; first compound 0.04 µM) | relative viability ([2]; first compound 0.1265 µM) | relative viability ([2]; first compound 0.4 µM) | relative viability ([2]; first compound 1.265 µM) | relative viability ([2]; first compound 4 µM) | relative viability (Mirin + Tozasertib; first compound 0.25 µM) | relative viability (Mirin + Tozasertib; first compound 0.7906 µM) | relative viability (Mirin + Tozasertib; first compound 2.5 µM) | relative viability (Mirin + Tozasertib; first compound 7.906 µM) | relative viability (Mirin + Tozasertib; first compound 25 µM) |
| --- | --- | --- | --- | --- | --- | --- | --- | --- | --- | --- | --- | --- | --- | --- | --- | --- | --- | --- | --- | --- |
| NCI-H1651 | 0.998 | 0.819 | 0.639 | 0.49 | 0.421 | 1.06 | 1.01 | 0.982 | 0.741 | 0.856 | 0.889 | 0.839 | 0.845 | 0.837 | 0.913 | 0.667 | 0.788 | 0.622 | 0.489 | 0.587 |
| NCI-H1666 | 0.792 | 0.777 | 0.592 | 0.498 | 0.329 | 0.734 | 0.853 | 0.791 | 0.646 | 0.517 | 0.974 | 0.916 | 1.1 | 0.849 | 1.03 | 0.625 | 0.621 | 0.582 | 0.519 | 0.518 |
| NCI-H1734 | 1.03 | 0.93 | 0.6 | 0.38 | 0.403 | 0.851 | 0.852 | 0.875 | 0.739 | 0.765 | 0.655 | 0.679 | 0.751 | – | 1.12 | 0.262 | 0.285 | 0.272 | 0.228 | 0.223 |
| NCI-H1755 | 1.11 | 0.928 | 0.713 | 0.641 | 0.6 | 1.03 | 1.12 | 1.01 | 1.06 | 1.1 | 0.963 | 0.809 | 0.948 | 0.89 | 1.06 | 0.682 | 0.587 | 0.655 | 0.462 | 0.606 |
| NCI-H1915 | 1.11 | 0.949 | 0.956 | 0.611 | 0.387 | 1.12 | – | 1.12 | 1.06 | 1.19 | 0.916 | 0.878 | 0.85 | 0.934 | 1.03 | 0.44 | – | 0.413 | 0.35 | 0.289 |
| NCI-H1944 | 0.822 | 0.699 | – | 0.691 | 0.553 | 1.11 | – | 1.25 | 1.05 | 0.752 | 1.21 | 0.988 | 1.13 | – | 1.23 | 0.245 | 0.231 | 0.253 | 0.192 | 0.174 |
| NCI-H1975 | 0.778 | 0.729 | 0.477 | 0.435 | 0.331 | 0.925 | 0.911 | 1.07 | 0.989 | 1.04 | 1.08 | 0.983 | 0.968 | 1.11 | 1.04 | 0.697 | 0.84 | 0.799 | 0.664 | 0.585 |
| NCI-H1993 | 0.797 | 0.798 | – | 0.754 | 0.734 | 0.739 | 0.746 | 0.698 | 0.727 | 0.756 | 0.835 | 0.813 | 0.883 | 0.873 | 0.856 | 0.611 | – | 0.605 | 0.52 | 0.576 |
| NCI-H2009 | 1.02 | 0.957 | 0.575 | 0.312 | 0.314 | 1.17 | 1.21 | 1.18 | 1.15 | 1.34 | 1.06 | 1.05 | 1.07 | 1.05 | 1.03 | 0.707 | 0.785 | 0.725 | 0.614 | 0.556 |
| NCI-H2023 | 1.25 | 0.797 | 0.515 | 0.555 | 0.373 | 0.709 | 0.674 | 0.653 | 0.684 | 0.522 | 0.712 | 0.655 | 0.713 | 0.713 | 1.07 | 0.343 | 0.354 | 0.38 | 0.27 | 0.188 |
| NCI-H2085 | 0.865 | 0.75 | 0.684 | 0.602 | 0.714 | 0.943 | 1.01 | 0.898 | 0.819 | 0.882 | 0.86 | 0.909 | 0.93 | 0.892 | 0.948 | 0.8 | 0.826 | 0.678 | 0.749 | 0.546 |
| NCI-H2087 | – | 0.693 | 0.871 | 0.499 | 0.677 | 0.992 | 1.11 | 0.915 | 1.23 | 0.841 | 0.897 | 0.898 | 0.921 | 0.809 | 0.846 | 0.26 | 0.248 | 0.292 | 0.22 | 0.19 |
| NCI-H2126 | 0.764 | 0.782 | 0.541 | 0.742 | 0.825 | 0.713 | 0.707 | 0.756 | 0.639 | 0.698 | 1.01 | 1 | 0.959 | 1.01 | 1.1 | 0.85 | 0.834 | 0.92 | 0.832 | 0.474 |
| NCI-H2228 | 1.79 | 0.81 | 0.954 | 0.756 | 0.727 | 0.702 | 0.64 | 0.783 | 0.831 | 0.553 | 0.474 | 0.586 | 0.417 | 0.428 | 0.524 | 0.267 | 0.197 | 0.235 | 0.203 | 0.176 |
| NCI-H2347 | 0.833 | 0.911 | 0.704 | 0.446 | 0.536 | 0.923 | 1.09 | 0.98 | 0.989 | 0.985 | 0.776 | 0.684 | 0.759 | 0.601 | 0.749 | 0.58 | 0.457 | 0.681 | 0.587 | 0.439 |
| NCI-H2405 | 1.19 | 0.661 | 0.194 | 0.336 | 0.316 | 0.891 | 1 | 0.963 | 0.895 | 0.789 | 0.847 | 0.867 | 0.855 | – | 1.02 | 0.71 | 0.778 | 0.775 | 0.67 | 0.61 |
| NCI-H3122 | 1.1 | 1.04 | 0.891 | 0.804 | 0.691 | 0.994 | 1.04 | 1.06 | 1.15 | 1.05 | 0.262 | 0.264 | 0.318 | 0.531 | 0.469 | 0.368 | 0.337 | 0.355 | 0.382 | 0.305 |
